Source: patent publication US12371454B2, “Cyclic peptide compound having Kras inhibitory action” (priority 2019, dated 2025)
Positions of bridges follow the written chain, without caps; N, C: chain ends. Non-standard residues stand in square brackets, D forms with d. Residues, ends and D or L forms follow the SMILES beside them. *: point of attachment. hPhe(3-Cl-4-CF3) = N[C@@H](CCc1ccc(C(F)(F)F)c(Cl)c1)C(=O)O; NMePhe(4-Cl) = CN[C@@H](Cc1ccc(Cl)cc1)C(=O)O; NMePhe(2-CN) = CN[C@@H](Cc1ccccc1C#N)C(=O)O; NMePhe(4-Me) = CN[C@@H](Cc1ccc(C)cc1)C(=O)O; NMePhe(3-F) = CN[C@@H](Cc1cccc(F)c1)C(=O)O; NMeGly(cPent) = CN[C@H](C(=O)O)C1CCCC1; Phe(3-I) = N[C@@H](Cc1cccc(I)c1)C(=O)O; NMeGly(cBu) = CN[C@H](C(=O)O)C1CCC1; NMeCha = CN[C@@H](CC1CCCCC1)C(=O)O; NMeChg = CN[C@H](C(=O)O)C1CCCCC1; hPhe = N[C@@H](CCc1ccccc1)C(=O)O; NMeD = CN[C@@H](CC(=O)O)C(=O)O; NMeL = CN[C@@H](CC(C)C)C(=O)O; Chg = N[C@H](C(=O)O)C1CCCCC1; NMeV = CN[C@H](C(=O)O)C(C)C; d(β3hA) = C[C@@H](N)CC(=O)O; NMeS = CN[C@@H](CO)C(=O)O; hSer = N[C@@H](CCO)C(=O)O; NMeA = CN[C@@H](C)C(=O)O; NMeAib = CNC(C)(C)C(=O)O; Nle = CCCC[C@H](N)C(=O)O; Piperidide = C1CCN(*)CC1; Ac5c = NC1(C(=O)O)CCCC1; Aze = O=C(O)[C@@H]1CCN1; X47 = Fc1cncc(C*)c1; Sar = CNCC(=O)O

Target: T1, Kras and SOS1 (biotin-tagged human Kras loaded with GDP, His-tagged human SOS1) (Homo sapiens, UniProt P01116, G12D)
T1 construct: made in house; host or cells: E. coli (stated for Kras only)
Assay: Protein-protein interaction inhibition between Kras and SOS1 (KrasGl2D-SOS PPI) using AlphaScreen
Format: binding
Settings: AlphaScreen; biotin-tagged human Kras loaded with GDP, His-tagged human SOS1; read-out: KRAS G12D-SOS PPI IC50
Summary of the method: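 Donor beads (nickel) hold His-SOS1; acceptor beads (streptavidin) hold biotin-Kras bound to GDP. Signal measured at 520-620 nm following 680 nm excitation.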

T1 sequence (P01116 1-188 isoform P01116-2 G12D): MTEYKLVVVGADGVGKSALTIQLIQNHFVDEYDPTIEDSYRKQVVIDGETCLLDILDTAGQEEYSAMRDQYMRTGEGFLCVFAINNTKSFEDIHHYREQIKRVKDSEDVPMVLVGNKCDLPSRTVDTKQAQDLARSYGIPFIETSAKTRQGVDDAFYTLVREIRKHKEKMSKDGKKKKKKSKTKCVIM

Row | Compound | IC50
1 | CC[C@H](C)[C@@H]1NC(=O)[C@H](CC(C)C)N(C)C(=O)C[C@@H](C(=O)N2CCCCC2)N(C)C(=O)[C@H](CC(C)C)NC(=O)C(C)(C)N(C)C(=O)[C@H](CCc2ccccc2)NC(=O)[C@H](Cc2cccc(I)c2)NC(=O)CN(C)C(=O)[C@H](CC2CCCCC2)N(C)C(=O)[C@@H]2CCN2C(=O)CN(C)C1=O [Compound 931] ([NMeL]I[Sar][Aze][NMeCha][Sar][Phe(3-I)][hPhe][NMeAib]L[NMeD]-Piperidide; lactam N-11) | 270 nM
2 | CC[C@H](C)[C@@H]1NC(=O)[C@H](CC(C)C)N(C)C(=O)C[C@@H](C)NC(=O)[C@H](C2CCCC2)N(C)C(=O)[C@H](C(C)C)NC(=O)[C@@H]2CCCN2C(=O)[C@H](CCc2ccc(C(F)(F)F)c(Cl)c2)NC(=O)CN(C)C(=O)[C@H](Cc2ccc(C)cc2)N(C)C(=O)[C@@H]2CCN2C(=O)[C@H](C)N(C)C1=O [Compound 933] (cyclo([Aze][NMePhe(4-Me)][Sar][hPhe(3-Cl-4-CF3)]PV[NMeGly(cPent)][d(β3hA)][NMeL]I[NMeA])) | 83 nM
3 | CCCC[C@@H]1NC(=O)[C@H](Cc2cccc(I)c2)NC(=O)CN(C)C(=O)[C@H](Cc2ccc(Cl)cc2)N(C)C(=O)CN(C)C(=O)CN(C)C(=O)[C@H]([C@@H](C)CC)NC(=O)[C@H](CC(C)C)N(C)C(=O)C[C@@H](C(=O)N2CCCCC2)N(C)C(=O)[C@H](CC(C)C)NC(=O)[C@H](Cc2ccc(Cl)cc2)N(C)C1=O [Compound 934] ([NMeL]I[Sar][Sar][NMePhe(4-Cl)][Sar][Phe(3-I)][Nle][NMePhe(4-Cl)]L[NMeD]-Piperidide; lactam N-11) | 34 nM
4 | CC[C@H](C)[C@@H]1NC(=O)[C@H](CC(C)C)N(C)C(=O)C[C@@H](C(=O)N2CCCCC2)N(C)C(=O)[C@H](C(C)C)N(C)C(=O)C2(CCCC2)NC(=O)[C@@H]2CCCN2C(=O)[C@H](CCc2ccc(C(F)(F)F)c(Cl)c2)NC(=O)CN(C)C(=O)[C@H](Cc2ccccc2C#N)N(C)C(=O)CN(C)C(=O)CN(C)C1=O [Compound 935] ([NMeL]I[Sar][Sar][NMePhe(2-CN)][Sar][hPhe(3-Cl-4-CF3)]P[Ac5c][NMeV][NMeD]-Piperidide; lactam N-11) | 6 nM
5 | CC[C@H](C)[C@@H]1NC(=O)[C@H](CC(C)C)N(C)C(=O)C[C@@H](C(=O)N2CCCCC2)N(C)C(=O)[C@H](C2CCCCC2)N(C)C(=O)C2(CCCC2)NC(=O)[C@@H]2CCCN2C(=O)[C@H](CCc2ccc(C(F)(F)F)c(Cl)c2)NC(=O)CN(C)C(=O)[C@H](C2CCC2)N(C)C(=O)CN(C)C(=O)CN(C)C1=O [Compound 936] ([NMeL]I[Sar][Sar][NMeGly(cBu)][Sar][hPhe(3-Cl-4-CF3)]P[Ac5c][NMeChg][NMeD]-Piperidide; lactam N-11) | 1.1 nM
6 | CC(C)C[C@H]1C(=O)N[C@@H](C2CCCCC2)C(=O)N(C)CC(=O)N(C)CC(=O)N(C)[C@@H](CC2CCCCC2)C(=O)N(C)CC(=O)N[C@@H](CCc2ccc(C(F)(F)F)c(Cl)c2)C(=O)N2CCC[C@H]2C(=O)NC2(CCCC2)C(=O)N(C)[C@@H](C(C)C)C(=O)N[C@H](C)CC(=O)N1C [Compound 937] (cyclo([Ac5c][NMeV][d(β3hA)][NMeL][Chg][Sar][Sar][NMeCha][Sar][hPhe(3-Cl-4-CF3)]P)) | 250 nM
7 | COCC[C@@H]1NC(=O)[C@H](CC(C)C)N(C)C(=O)C[C@@H](C(=O)N2CCCCC2)N(C)C(=O)[C@H](C2CCCCC2)N(C)C(=O)C2(CCCC2)NC(=O)[C@@H]2CCCN2C(=O)[C@H](CCc2ccc(C(F)(F)F)c(Cl)c2)NC(=O)CN(C)C(=O)[C@H](CC2CCCCC2)N(C)C(=O)CN(C)C(=O)CN(C)C1=O [Compound 941] ([NMeL][hSer](Me)[Sar][Sar][NMeCha][Sar][hPhe(3-Cl-4-CF3)]P[Ac5c][NMeChg][NMeD]-Piperidide; lactam N-11) | 3.3 nM
8 | CC[C@H](C)[C@@H]1NC(=O)[C@H](C)N(C)C(=O)C[C@@H](C(=O)N2CCCCC2)N(C)C(=O)[C@H](C(C)C)N(C)C(=O)C2(CCCC2)NC(=O)[C@H](Cc2cccc(F)c2)N(C)C(=O)[C@H](CCc2ccc(C(F)(F)F)c(Cl)c2)NC(=O)CN(C)C(=O)[C@H](CC2CCCCC2)N(C)C(=O)CN(C)C(=O)CN(C)C1=O [Compound 945] ([NMeA]I[Sar][Sar][NMeCha][Sar][hPhe(3-Cl-4-CF3)][NMePhe(3-F)][Ac5c][NMeV][NMeD]-Piperidide; lactam N-11) | 9.8 nM
9 | CC[C@H](C)[C@@H]1NC(=O)[C@H](CC(C)C)N(C)C(=O)C[C@@H](C(=O)N2CCCCC2)N(C)C(=O)[C@H](C2CCCCC2)N(C)C(=O)C2(CCCC2)NC(=O)[C@H](COCc2cncc(F)c2)N(C)C(=O)[C@H](CCc2ccc(C(F)(F)F)c(Cl)c2)NC(=O)CN(C)C(=O)[C@H](CC2CCCCC2)N(C)C(=O)CN(C)C(=O)CN(C)C1=O [Compound 950] ([NMeL]I[Sar][Sar][NMeCha][Sar][hPhe(3-Cl-4-CF3)][NMeS](X47)[Ac5c][NMeChg][NMeD]-Piperidide; lactam N-11) | 9 nM
